From US20070021488A1, “Method for treating nervous system disorders and conditions” (Wyeth, priority 2005, published 2007)
Values joined by “and” are separate entries in the source; they are usually repeats but may differ in a detail not shown here. Equal entries are not always repeated.

How the values were obtained:
[1] = test system: Spinal Nerve Ligation (SNL) Model of Neuropathic Pain; assay: Spinal Nerve Ligation (SNL) model of neuropathic pain, tactile hypersensitivity; format: in vivo, rat; details: 30 mg/kg IP, 30-300 minutes after administration, FIG. 7
From the text: Subjects. Male Sprague-Dawley rats (Indianapolis, Ind.) weighing 150 to 200 g at time of arrival, were individually housed in wire cages in a climate-controlled room. A 12-hour light/dark cycle (lights on at 0630) was in effect, and food and water were available ad libitum.
Surgery—Spinal Nerve Ligation. Rats were anesthetized with 3.5% halothane in O2 at 1 L/min and maintained with 1.5% halothane in O2 during surgery. Ligation of the L5 and L6 nerves was produced by an incision through the left paraspinal muscles. The left L5 and L6 spinal nerves were isolated adjacent to the vertebral column and ligated tightly with 6-0 silk suture just distal to the dorsal root ganglion. The wound was closed in layers using 4-0 silk suture and wound clips. Testing began 7 days after surgery.
Assessment of tactile hypersensitivity. […] Baseline tactile sensitivity was assessed using a series of calibrated von Frey monofilaments (Stoelting; Wood Dale, Ill.) 0 to 3 days before surgery. […] The ability of a single dose of test compound to reverse established hypersensitivity was assessed using a time course procedure. […]
Results are presented as the 50% threshold values (50% threshold in g force) estimated by the Dixon non-parametric test. […] Significant main effects were analyzed further by subsequent least significant difference analysis. […]

[2] = biological target: T1, human dopamine transporter (hDAT) (Homo sapiens, UniProt Q01959); assay: Dopamine transporter (hDAT) membrane binding assay
T1 construct: purchased Perkin Elmer RBHDATM
Protocol: (§1) MDCK-Net6 cells, stably transfected with human hNET [15] were cultured in growth medium containing high glucose DMEM (Gibco, Cat. No. 11995), 10% FBS (dialyzed, heat-inactivated, US Bio-Technologies, Lot FBD1129HI) and 500 μg/ml G418 (Gibco, Cat. No. 10131). Cells were plated at 300,000/T75 flask and cells were split twice weekly. The JAR cell line (human placental choriocarcinoma) was purchased from ATCC (Cat. No. HTB-144). The cells were cultured in growth medium containing RPMI 1640 (Gibco, Cat. No. 72400), 10% FBS (Irvine, Cat. No. 3000), 1% sodium pyruvate (Gibco, Cat. No. 1136) and 0.25% glucose. Cells were plated at 250,000 cells/T75 flask and split twice weekly. For cell based assays, cells were plated in Wallac 96-well sterile plates (Perkin Elmer, Cat. No. 3983498). For the human dopamine transporter (hDAT) binding assay, membranes from cells expressing recombinant hDAT are purchased from Perkin Elmer (Cat. No. RBHDATM, Lot#2227) and maintained at −80° C. until assay day.
For each experiment, a data stream of cpm values collected from the Wallac Microbeta counter was downloaded to a Microsoft Excel statistical application program. Calculations of IC50/EC50 values were made using the transformed-both-sides logistic dose response program written by Wyeth Biometrics Department.

[3] = test system: ovariectomized (OVX) rats; assay: Telemetry rat model of ovariectomy-induced thermoregulatory dysfunction (tail skin temperature); format: in vivo; details: 30 mg/kg, sc
From the text: This model has been modified from a previously reported protocol describing estrogen regulation of diurnal tail skin temperature (TST) patterns (Berendsen, et al., European Journal of Pharmacology, 2001, 419(1): 47-54). […] A temperature and physical activity transmitter (PhysioTel TA10TA-F40, Data Sciences International) was implanted subcutaneously in the dorsal scapular region and the tip of the temperature probe was tunneled subcutaneously 2.5 cm beyond the base of the tail. After a 7-day recovery period, TST readings were continuously recorded for the remainder of the study. Tail skin temperature readings were collected from each animal every 5 minutes with values obtained over a 10 second sampling period. The day before test day, an average baseline TST value was calculated for each animal by averaging temperature readings recorded during the 12 hour active (dark) phase. […]
Statistical analysis: Evaluation of a compound's ability to restore normal lowering of TST in the telemetry model was analyzed using hourly TST values calculated for each animal by averaging the 12 temperature readings obtained every 5 minutes over that recording time. […]
The effect of test compound is measured by evaluating the following parameters in this model: onset of action, duration of effect on TST, maximal change in TST and mean change in TST over the duration of the compound effect.

[4] = biological target: T2, human serotonin transporter (hSERT) (Homo sapiens, UniProt P31645); assay: Serotonin (5-HT) uptake assay in JAR cells; format: cell-based; details: [3H]5-HT uptake, read-out: hSERT function uptake (EC50 in nm)
T2 construct: The methods for 5-HT functional reuptake using the JAR cell line; host or cells: JAR (human placental choriocarcinoma), staurosporine-stimulated
Protocol: as §1
The methods for 5-HT functional reuptake using the JAR cell line were modified using a previous literature report. On day 1, cells were plated at 15,000 cells/well in 96-well plates containing growth medium (RPMI 1640 with 10% FBS) and maintained in a cell incubator (37° C., 5% CO2). […] The plates were counted in a Wallac Microbeta counter (PerkinElmer) to collect the raw cpm data. […]

[5] = biological target: human norepinephrine transporter (hNET) (Homo sapiens, UniProt P23975); assay: cell-based
Protocol: as §1
On day 1, cells were plated at 3,000 cells/well in growth medium and maintained in a cell incubator (37° C., 5% CO2). […] The plates were counted in a Wallac Microbeta counter (PerkinElmer) to collect the raw cpm data. […]

T1 sequence (Q01959 whole entry): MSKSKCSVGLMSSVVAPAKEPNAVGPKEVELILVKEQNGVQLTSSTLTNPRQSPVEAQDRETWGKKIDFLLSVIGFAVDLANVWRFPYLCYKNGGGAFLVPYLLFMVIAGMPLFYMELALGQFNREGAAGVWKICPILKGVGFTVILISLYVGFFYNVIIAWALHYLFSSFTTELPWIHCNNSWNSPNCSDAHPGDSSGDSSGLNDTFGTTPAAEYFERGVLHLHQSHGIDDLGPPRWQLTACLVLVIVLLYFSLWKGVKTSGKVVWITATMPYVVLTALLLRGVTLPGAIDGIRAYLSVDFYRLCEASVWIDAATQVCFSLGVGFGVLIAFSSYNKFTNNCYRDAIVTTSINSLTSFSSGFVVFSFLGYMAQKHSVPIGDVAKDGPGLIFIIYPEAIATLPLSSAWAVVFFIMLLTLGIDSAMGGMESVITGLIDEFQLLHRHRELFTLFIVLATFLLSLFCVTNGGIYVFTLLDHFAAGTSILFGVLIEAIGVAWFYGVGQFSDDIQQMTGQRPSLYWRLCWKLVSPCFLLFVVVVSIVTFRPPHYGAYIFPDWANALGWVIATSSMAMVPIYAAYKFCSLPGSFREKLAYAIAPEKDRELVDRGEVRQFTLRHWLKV
T2 sequence (P31645 whole entry): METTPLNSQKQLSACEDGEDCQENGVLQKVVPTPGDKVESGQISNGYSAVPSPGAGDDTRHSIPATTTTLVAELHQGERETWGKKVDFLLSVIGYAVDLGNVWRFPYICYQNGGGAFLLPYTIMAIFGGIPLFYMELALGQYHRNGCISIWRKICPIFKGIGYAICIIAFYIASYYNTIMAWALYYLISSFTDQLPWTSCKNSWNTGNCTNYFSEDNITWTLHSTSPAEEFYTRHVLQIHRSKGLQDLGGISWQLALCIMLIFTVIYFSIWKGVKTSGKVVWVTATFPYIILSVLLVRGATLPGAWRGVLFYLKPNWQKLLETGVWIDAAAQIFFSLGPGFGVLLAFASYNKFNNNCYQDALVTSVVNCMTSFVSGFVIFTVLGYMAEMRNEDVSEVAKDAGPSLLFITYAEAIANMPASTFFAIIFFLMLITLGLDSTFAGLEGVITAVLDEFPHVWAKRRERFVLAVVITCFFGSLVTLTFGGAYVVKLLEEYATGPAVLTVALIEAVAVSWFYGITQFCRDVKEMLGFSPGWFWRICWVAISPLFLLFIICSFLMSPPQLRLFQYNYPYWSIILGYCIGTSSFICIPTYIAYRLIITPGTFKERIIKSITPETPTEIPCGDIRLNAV
Sequence of human norepinephrine transporter (hNET) (P23975 whole entry): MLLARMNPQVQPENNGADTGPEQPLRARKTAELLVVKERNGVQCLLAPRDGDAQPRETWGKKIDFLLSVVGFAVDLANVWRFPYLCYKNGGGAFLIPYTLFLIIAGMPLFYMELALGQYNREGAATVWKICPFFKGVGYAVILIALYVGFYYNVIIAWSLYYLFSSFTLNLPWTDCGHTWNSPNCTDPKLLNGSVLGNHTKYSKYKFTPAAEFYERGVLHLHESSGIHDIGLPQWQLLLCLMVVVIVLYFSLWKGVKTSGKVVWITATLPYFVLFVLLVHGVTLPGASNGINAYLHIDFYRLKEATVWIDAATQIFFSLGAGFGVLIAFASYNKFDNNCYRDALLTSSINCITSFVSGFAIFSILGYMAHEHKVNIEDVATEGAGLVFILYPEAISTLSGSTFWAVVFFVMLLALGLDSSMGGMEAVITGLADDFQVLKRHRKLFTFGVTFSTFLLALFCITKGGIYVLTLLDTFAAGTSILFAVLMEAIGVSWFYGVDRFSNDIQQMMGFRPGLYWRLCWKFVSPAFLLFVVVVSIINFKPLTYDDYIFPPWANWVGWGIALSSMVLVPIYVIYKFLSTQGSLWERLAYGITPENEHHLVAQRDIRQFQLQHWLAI

Row | hDAT binding (% I at 1 μM) ([2]; 1 μM) | hDAT binding (% I at 10 μM) [2] | EC50 [4] | EC50 [5] | Structure (SMILES) | Reversal of tactile allodynia in the SNL neuropathic pain model [1] | Restoration of normal TST in OVX-induced thermoregulatory dysfunction telemetry model [3]
1 | – | – | – | – | Clc1ccc(C23CNCC2C3)cc1Cl (racemic) [Racemic 1-(3,4-dichlorophenyl)-3-azabicyclo[3.1.0]hexane, 1-(3,4-dichlorophenyl)-3-azabicyclo[3.1.0]hexane] | significantly reverses tactile allodynia | –
2 | 26.5 % I | 45 % I and 52.1 % I | – | – | Cc1ccc(C23CNCC2C3)cc1 (racemic) [Racemic 1-(4-methylphenyl)-3-azabicyclo[3.1.0]hexane, 1-(4-methylphenyl)-3-azabicyclo[3.1.0]hexane] | – | restores normal TST
3 | – | 51 % I | 7.35 µM | 0.148 µM | Cc1ccc([C@@]23CNC[C@@H]2C3)cc1 (single isomer, unassigned) [(+)-1-(4-methylphenyl)-3-azabicyclo[3.1.0]hexane] | – | restores normal TST
